Test results taken from patent US9067898B1, “Isothiazole derivatives as GPR120 agonists for the treatment of type II diabetes” (Janssen Pharmaceutica NV, priority 2014, dated 2015).

Legend:
[1] = biological target: T1, short form of the GPR120 receptor (GPR120S) (Homo sapiens, UniProt Q5NUL3); test: Human GPR120 DiscoveRx PathHunter Beta-Arrestin assay, Procedure β-arrestin B; assay type: cell-based; settings: PathHunter CHO-K1 GPR120S β-Arrestin cell line, 5000 cells/well, read-out: hGPR120 β-arrestin B EC50
T1 construct: host or cells: PathHunter CHO-K1 GPR120S β-Arrestin Cell Line
T1 sequence (P32121 whole entry partner, one chain of several): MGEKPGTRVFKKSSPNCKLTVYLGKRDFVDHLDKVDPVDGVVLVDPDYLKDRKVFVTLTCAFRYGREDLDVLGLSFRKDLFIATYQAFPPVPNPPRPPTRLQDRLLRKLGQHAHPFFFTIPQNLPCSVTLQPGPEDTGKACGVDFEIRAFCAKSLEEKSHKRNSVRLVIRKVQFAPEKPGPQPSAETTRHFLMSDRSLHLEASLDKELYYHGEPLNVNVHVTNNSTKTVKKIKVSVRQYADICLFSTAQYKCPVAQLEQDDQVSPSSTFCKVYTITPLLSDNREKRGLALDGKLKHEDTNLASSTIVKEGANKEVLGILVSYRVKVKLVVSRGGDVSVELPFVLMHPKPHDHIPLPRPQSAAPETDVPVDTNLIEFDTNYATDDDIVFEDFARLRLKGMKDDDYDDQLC
From the text: The binding of an agonist (medium/long chain fatty acids or small molecule agonists) to the G-protein-coupled receptor GPR120 activates phospholipase C, leading to release of intracellular Ca^+2 through the generation of inositol 1,4,5-trisphosphate (InsP3 or IP3). GPR120 activation can also trigger intracellular signaling via recruitment of Beta-Arrestin. In the present method, agonist-induced activation of the human GPR120 receptor is monitored through the use of PathHunter CHO-K1 GPR120 Beta-Arrestin Cell Line engineered by DiscoveRx, as detailed below. The cell lines are designed to co-express both the ProLink/Enzyme Donor (PK)-tagged GPCR and the Enzyme […] (EA)-tagged Beta-Arrestin fusion proteins. Upon GPR120 receptor stimulation/activation, the EA-tagged Beta-Arrestin portion is translocated to the tagged receptor, where the two enzyme fragments are brought within close proximity. Under these conditions, these fragments can interact and form an active Beta-gal enzyme complex through Enzyme Fragment Complementation (EFC). This active Beta-gal complex can enzymatically hydrolyse the substrate to produce a detectable light signal; therefore, activation as a function of agonist concentration can be expressed as an EC50 value to determine relative compound activities. This in vitro assay therefore serves to assess compound agonist activity of the GPR120. Procedure β-Arrestin A: In Procedure β-arrestin A, the cell used were PathHunter CHO-K1 GPR120 β-Arrestin Cell Line, expressing the long form of human GPR120 (Genbank accession number NM 181745), with 3000 cells per well. Procedure β-Arrestin B: In Procedure 3-arrestin B the cells used were PathHunter CHO-K1 GPR120S β-Arrestin Cell Line, expressing the short form of the GPR120 receptor (Accession #NM_181745), with 5000 cells/well. Assay Procedure:
The selected CHO-K1 GPR120 β-Arrestin cells were cultured in Ham's F12 media supplemented with 10% fetal bovine serum (FBS), 1% Glutamine, lx p/s, 800 μg/mL G418 and 300 μg/mL Hygromycin B (for selection). Cell stocks were maintained and grown in a sub-confluent state using standard cell culture procedures. The day before the experiment, the cells were harvested with non-enzymatic cell dissociation buffer and re-suspended in complete growth media at the desired concentration. A Corning 384-plate was then seeded with the proper number of cells in a volume of 25 μL, per well. The seeded plates were incubated overnight at 37° C.
On the day of the experiment, the Assay Buffer containing (a) HBSS with Ca^++ and Mg^++, (b) 20 mM HEPES, and (c) 0.1% BSA stabilizer (pH 7.4) was prepared. The growth medium was gently removed from the cell plates and 20 μL of Assay Buffer added to each well. The plate was then incubated at 37° C. for 60 min. Test compounds were serially diluted in Assay Buffer to desired concentrations (more particularly to one or more of the following μM concentrations: 25, 12.5, 6.25, 3.125, 1.5625, 0.78125, 0.390625, 0.1953125, 0.09765625, 0.048828125, 0.024414063, 0.012207031). Five μL of compound dilution was then added to each well and the plate incubated at 37° C. for 90 min. The detection reagents were prepared according to the manufacture's instruction. Twelve μL of the detection reagents were added to each well and the plate incubated at room temperature for 60 min.
The plates were read on an EnVision instrument, using Protocol name: Luminescence, Plate type: 384 Costar, Measurement height: 3 mm, Measurement time: 1 s, Aperture: 384 Plate aperture. The % activity relative to the positive control was calculated using the following equation:
The % Activity values were plotted versus the concentration of test compound and fitted to a sigmoidal dose-response curve with a Hill slope=1 (fixed value) using nonlinear regression with GraphPad Prism 5.0 to calculate the EC50 values. […]

Human GPR120 short form = biological target: T2, Human GPR120 short form (Homo sapiens, UniProt Q5NUL3); test: Human GPR120 calcium flux assay (FLIPR), Procedure Calcium A; assay type: cell-based; settings: HEK-293 cells expressing human GPR120 short form, 2500 cells/well; read-out: GPR120 Ca2+ Assay A EC50
T2 construct: expressed in transfected cells
T2 sequence (Q5NUL3 1-361): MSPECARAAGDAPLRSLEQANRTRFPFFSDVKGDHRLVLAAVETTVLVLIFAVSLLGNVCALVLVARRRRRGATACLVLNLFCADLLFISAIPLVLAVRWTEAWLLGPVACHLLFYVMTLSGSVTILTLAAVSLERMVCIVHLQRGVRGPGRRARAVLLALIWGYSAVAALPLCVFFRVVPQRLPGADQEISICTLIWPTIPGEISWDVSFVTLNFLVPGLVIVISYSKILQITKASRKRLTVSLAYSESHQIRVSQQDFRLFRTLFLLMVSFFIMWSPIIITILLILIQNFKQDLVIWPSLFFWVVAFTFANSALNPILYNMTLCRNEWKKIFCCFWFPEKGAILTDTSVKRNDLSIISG
Method in brief: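 HEK293 cells stably expressing the short isoform (NM_001195755.1), 2500/well, starved 1 h, then loaded with Fluo-4 NW plus probenecid (30 min 37 °C, 15 min RT). Compound solutions 0.012–100 μM, 0.2% DMSO final; FLIPR read 300 s after addition. EC50 from Fmax−Fmin fitted to variable-slope sigmoid (Hill <2).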

In the case of `CCc1cc(CCC(=O)O)c(C(F)(F)F)cc1OCc1c(Cl)nsc1-c1ccccc1C` [Cpd 215, 3-(4-((3-chloro-5-(o-tolyl)isothiazol-4-yl)methoxy)-5-ethyl-2-(trifluoromethyl)phenyl)propanoic acid], the EC50 [1] is reported as 2140 nM and the EC50 (Human GPR120 short form) is reported as 648 nM.
Work on `Cc1c(CCC(=O)O)ccc(OCc2c(-c3ccc(C(F)(F)F)cc3)nsc2C(F)(F)F)c1C` [Cpd 224, 3-(2,3-dimethyl-4-[[5-(trifluoromethyl)-3-[4-(trifluoromethyl)phenyl]-1,2-thiazol-4-yl]methoxy]phenyl)propanoic acid] yielded an EC50 [1] of 229 nM and an EC50 (Human GPR120 short form) of 831 nM.
`O=C(O)CCc1cc(F)c(OCc2c(-c3ccccc3)nsc2C(F)(F)F)c(F)c1` [Cpd 145, 3-(3,5-difluoro-4-((3-phenyl-5-(trifluoromethyl)isothiazol-4-yl)methoxy)phenyl)propanoic acid] showed an EC50 [1] of 132 nM and an EC50 (Human GPR120 short form) of 160 nM.
`Cc1ccc(-c2snc(Cl)c2COc2ccc(CCC(=O)O)c(C(F)(F)F)c2)c(F)c1` [Cpd 175, 3-(4-[[3-chloro-5-(2-fluoro-4-methylphenyl)-1,2-thiazol-4-yl]methoxy]-2-(trifluoromethyl)phenyl)propanoic acid] was tested, and the EC50 [1] was 230 nM and the EC50 (Human GPR120 short form) was 247 nM.
“3-(4-[[5-chloro-3-(4-chlorophenyl)thiophen-2-yl]methoxy]-2,3-dimethylphenyl) propanoic acid [Cpd 6]” showed an EC50 [1] of 1940 nM and an EC50 (Human GPR120 short form) of 405 nM.
Compound “3-(4-((3-(2,4-difluorophenyl)-5-(trifluoromethyl)isothiazol-4-yl)methoxy)-3,5-difluorophenyl)propanoic acid [Cpd 174]” has an EC50 [1] of 1510 nM and an EC50 (Human GPR120 short form) of 382 nM.
In the case of `COc1cc(OCc2c(Cl)nsc2-c2ccccc2C)ccc1CCC(=O)O` [Cpd 222, 3-(4-((3-chloro-5-(o-tolyl)isothiazol-4-yl)methoxy)-2-methoxyphenyl)propanoic acid], the EC50 [1] is reported as 1950 nM and the EC50 (Human GPR120 short form) is reported as 757 nM.
Work on `COc1ccc(-c2nsc(C(F)(F)F)c2COc2ccc(CCC(=O)O)c(C)c2C)cc1F` [Cpd 172, 3-(4-[[3-(3-fluoro-4-methoxyphenyl)-5-(trifluoromethyl)-1,2-thiazol-4-yl]methoxy]-2,3-dimethylphenyl)propanoic acid] yielded an EC50 [1] of 147 nM and an EC50 (Human GPR120 short form) of 229 nM.
For `COc1ccc(-c2nsc(C(F)(F)F)c2COc2c(F)cc(CCC(=O)O)cc2F)c(F)c1` [Cpd 151, 3-(3,5-difluoro-4-[[3-(2-fluoro-4-methoxyphenyl)-5-(trifluoromethyl)-1,2-thiazol-4-yl]methoxy]phenyl)propanoic acid], the EC50 [1] was 85 nM and the EC50 (Human GPR120 short form) was 169 nM.
Compound `Cc1ccc(-c2snc(C(F)(F)F)c2COc2ccc(CCC(=O)O)c(C)c2C)c(C)c1` [Cpd 184, 3-(4-[[5-(2,4-dimethylphenyl)-3-(trifluoromethyl)-1,2-thiazol-4-yl]methoxy]-2,3-dimethylphenyl) propanoic acid] has an EC50 [1] of 997 nM and an EC50 (Human GPR120 short form) of 300 nM.
`Cc1ccc(-c2snc(C(F)(F)F)c2COc2c(F)cc(CCC(=O)O)cc2F)c(F)c1` [Cpd 95, 3-(3,5-difluoro-4-[[5-(2-fluoro-4-methylphenyl)-3-(trifluoromethyl)-1,2-thiazol-4-yl]methoxy]phenyl)propanoic acid] showed an EC50 [1] of 116 nM and an EC50 (Human GPR120 short form) of 72 nM.
With `Cc1c(CCC(=O)O)ccc(OCc2c(-c3ccc(F)c(F)c3)nsc2C(F)(F)F)c1C` [Cpd 143, 3-(4-((3-(3,4-difluorophenyl)-5-(trifluoromethyl)isothiazol-4-yl)methoxy)-2,3-dimethylphenyl)propanoic acid] the EC50 [1] was 374 nM and the EC50 (Human GPR120 short form) was 156 nM.
“3-(4-[[3-(4-ethylphenyl)-5-methoxy-1,2-thiazol-4-yl]methoxy]-2,3-dimethylphenyl)propanoic acid [Cpd 228]” showed an EC50 [1] of 118 nM and an EC50 (Human GPR120 short form) of 89 nM.
`O=C(O)C1CC1c1ccc(OCc2c(-c3ccc(Cl)cc3)nsc2C(F)(F)F)cc1` (stereo not drawn) [Cpd 205, 2-(4-((3-(4-chlorophenyl)-5-(trifluoromethyl)isothiazol-4-yl)methoxy)phenyl)cyclopropanecarboxylic acid] showed an EC50 [1] of 741 nM and an EC50 (Human GPR120 short form) of 530 nM.
Compound `CC(Cc1cc(F)c(OCc2c(-c3ccc(F)cc3F)nsc2C(F)(F)F)c(F)c1)C(=O)O` (stereo not drawn) [Cpd 196, 3-(4-((3-(2,4-difluorophenyl)-5-(trifluoromethyl)isothiazol-4-yl)methoxy)-3,5-difluorophenyl)-2-methylpropanoic acid] has an EC50 [1] of 195 nM and an EC50 (Human GPR120 short form) of 370 nM.
`Cc1c(CCC(=O)O)ccc(OCc2c(C3CC(F)(F)C3)nsc2C(F)(F)F)c1C` [Cpd 137, 3-(4-[[3-(3,3-difluorocyclobutyl)-5-(trifluoromethyl)-1,2-thiazol-4-yl]methoxy]-2,3-dimethylphenyl) propanoic acid] gave an EC50 [1] of 413 nM and an EC50 (Human GPR120 short form) of 137 nM.
`Cc1c(CCC(=O)O)ccc(OCc2c(C3CCC(F)(F)C3)nsc2C(F)(F)F)c1C` (stereo not drawn) [Cpd 199, 3-(4-[[3-(3,3-difluorocyclopentyl)-5-(trifluoromethyl)-1,2-thiazol-4-yl]methoxy]-2,3-dimethylphenyl)propanoic acid] was tested, and the EC50 [1] was 622 nM and the EC50 (Human GPR120 short form) was 423 nM.
`CC(Cc1ccc(OCc2c(-c3ccc(Cl)c(F)c3)nsc2C(F)(F)F)cc1)C(=O)O` (stereo not drawn) [Cpd 165, 3-(4-((3-(4-chloro-3-fluorophenyl)-5-(trifluoromethyl)isothiazol-4-yl)methoxy)phenyl)-2-methylpropanoic acid] was tested, and the EC50 [1] was 435 nM and the EC50 (Human GPR120 short form) was 215 nM.
Compound `O=C(O)CCc1ccc(OCc2c(C(F)(F)F)nsc2-c2ccc(Cl)cc2)cc1Cl` [Cpd 208, 3-(2-chloro-4-[[5-(4-chlorophenyl)-3-(trifluoromethyl)-1,2-thiazol-4-yl]methoxy]phenyl)propanoic acid] has an EC50 [1] of 554 nM and an EC50 (Human GPR120 short form) of 578 nM.
`O=C(O)CCc1cc(F)c(OCc2c(-c3ccc(F)c(F)c3)nsc2C(F)(F)F)c(F)c1` [Cpd 129, 3-(4-((3-(3,4-difluorophenyl)-5-(trifluoromethyl)isothiazol-4-yl)methoxy)-3,5-difluorophenyl)propanoic acid] gave an EC50 [1] of 116 nM.
“3-(4-((3-(4-ethylphenyl)-5-(trifluoromethyl)isothiazol-4-yl)methoxy)-2,3,5-trifluorophenyl)propan-1-ol [Cpd 238]” gave an EC50 [1] of 310 nM and an EC50 (Human GPR120 short form) of 107 nM.
Compound `COc1ccc(-c2nsc(C(F)(F)F)c2COc2c(F)cc(CCC(=O)O)cc2F)cc1F` [Cpd 237, 3-(3,5-difluoro-4-[[3-(3-fluoro-4-methoxyphenyl)-5-(trifluoromethyl)-1,2-thiazol-4-yl]methoxy]phenyl)propanoic acid] has an EC50 [1] of 96 nM.
